US20170283396A1, “DIAMINOHETEROARYL SUBSTITUTED INDAZOLES” (Bayer Pharma Aktiengesellschaft, priority 2013, published 2017)
Where two headings read alike, the source gives them in different places.

Legend:
[1] = target: T1, catalytic domain of human Bub1 (amino acids 704-1085) (Homo sapiens, UniProt O43683); experiment: Bub1 kinase assay (TR-FRET); type: biochemical
T1 construct: catalytic domain of human Bub1 (amino acids 704-1085); His6 (N); made in house; host or cells: Hi5 insect cells
Procedure: To this end, 100-fold concentrated compound solutions (in DMSO) were previously prepared by serial dilution (1:3.4) of 2 mM stocks in a clear low volume 384-well source microtiter plate (Greiner Bio-One, Frickenhausen, Germany), from which 50 nl of compounds were transferred into a black low volume test microtiter plate from the same supplier. […] The resulting mixture (5 μL final volume) was incubated at […] during 60 min., and the reaction was stopped by the addition of 5 μL of an aqueous EDTA-solution (50 mM EDTA, in 100 mM HEPES pH 7.5 and 0.2% (w/v) bovine serum albumin) which also contained the TR-FRET detection reagents (0.2 μM streptavidin-XL665 [Cisbio Bioassays, Codolet, France] and 1 nM anti-phosho-Serine antibody [Merck Millipore, cat. #35-001] and 0.4 nM LANCE EU-W1024 labeled anti-mouse IgG antibody [Perkin-Elmer, product no. AD0077, alternatively a Terbium-cryptate-labeled anti-mouse IgG antibody from Cisbio Bioassays can be used]). The stopped reaction mixture was further incubated 1 h at 22° C. in order to allow the formation of complexes between peptides and detection reagents. Subsequently, the amount of product was evaluated by measurement of the resonance energy transfer from the Eu-chelate-antibody complex recognizing the Phosphoserine residue to the streptavidin-XL665 bound to the biotin moiety of the peptide. […] IC50 values were calculated by fitting the normalized inhibition data to a 4-parameter logistic equation (Minimum, Maximum, IC50, Hill; Y=Max+(Min−Max)/(1+(X/IC50)Hill)).

[2] = system: HeLa cell line; experiment: Proliferation assay (HeLa cell line); type: cell-based; settings: Homo sapiens, 96 h, read-out: Biological Assay 2: Proliferation assay (HeLa cell line) median IC50
Procedure: (§1) Cultivated tumor cells (cells were ordered from ATCC, except HeLa-MaTu and HeLa-MaTu-ADR, which were ordered from EPO-GmbH, Berlin) were plated at a density of 1000 to 5000 cells/well, depending on the growth rate of the respective cell line, in a 96-well multititer plate in 200 μL of their respective growth medium supplemented 10% fetal calf serum. After 24 hours, the cells of one plate (zero-point plate) were stained with crystal violet (see below), while the medium of the other plates was replaced by fresh culture medium (200 μL), to which the test substances were added in various concentrations (0 μM, as well as in the range of 0.001-10 μM; the final concentration of the solvent dimethyl sulfoxide was 0.5%). The cells were incubated for 4 days in the presence of test substances. Cell proliferation was determined by staining the cells with crystal violet: the cells were fixed by adding 20 μl/measuring point of an 11% glutaric aldehyde solution for 15 minutes at room temperature. After three washing cycles of the fixed cells with water, the plates were dried at room temperature. The cells were stained by adding 100 μl/measuring point of a 0.1% crystal violet solution (pH 3.0). After three washing cycles of the stained cells with water, the plates were dried at room temperature. The dye was dissolved by adding 100 μl/measuring point of a 10% acetic acid solution. Absorption was determined by photometry at a wavelength of 595 nm. The change of cell number, in percent, was calculated by normalization of the measured values to the absorption values of the zero-point plate (=0%) and the absorption of the untreated (0 μm) cells (=100%). The IC50 values were determined by means of a 4 parameter fit using the company's own software.

[3] = system: HeLa-MaTu-ADR cell line; experiment: Proliferation assay (HeLa-MaTu-ADR cell line); type: cell-based; settings: 96 h, read-out: Biological Assay 2: Proliferation assay (HeLa-MaTu-ADR cell line) median IC50
Procedure: as §1

[4] = system: NCI-H460 cell line; experiment: Proliferation assay (NCI-H460 cell line); type: cell-based; settings: Homo sapiens, read-out: Biological Assay 2: Proliferation assay (NCI-H460 cell line) median IC50
Procedure: as §1

[5] = system: DU145 cell line; experiment: Proliferation assay (DU145 cell line); type: cell-based; settings: Homo sapiens, DU-145, 96 h, read-out: Biological Assay 2: Proliferation assay (DU145 cell line) median IC50
Procedure: as §1

[6] = system: Caco2 cell line; experiment: Proliferation assay (Caco2 cell line); type: cell-based; settings: Homo sapiens, Caco-2, 96 h, read-out: Biological Assay 2: Proliferation assay (Caco2 cell line) median IC50
Procedure: as §1

[7] = system: B16F10 cell line; experiment: Proliferation assay (B16F10 cell line); type: cell-based; settings: Mus musculus, B16-F10, 96 h, read-out: Biological Assay 2: Proliferation assay (B16F10 cell line) median IC50
Procedure: as §1

[8] = TR-FRET, 10 μM ATP, 1 μM peptide substrate, read-out: Biological Assay 1: Bub1 kinase assay median IC50
[9] = cervical cancer, 4 days incubation, crystal violet staining

T1 sequence (O43683 704-1085): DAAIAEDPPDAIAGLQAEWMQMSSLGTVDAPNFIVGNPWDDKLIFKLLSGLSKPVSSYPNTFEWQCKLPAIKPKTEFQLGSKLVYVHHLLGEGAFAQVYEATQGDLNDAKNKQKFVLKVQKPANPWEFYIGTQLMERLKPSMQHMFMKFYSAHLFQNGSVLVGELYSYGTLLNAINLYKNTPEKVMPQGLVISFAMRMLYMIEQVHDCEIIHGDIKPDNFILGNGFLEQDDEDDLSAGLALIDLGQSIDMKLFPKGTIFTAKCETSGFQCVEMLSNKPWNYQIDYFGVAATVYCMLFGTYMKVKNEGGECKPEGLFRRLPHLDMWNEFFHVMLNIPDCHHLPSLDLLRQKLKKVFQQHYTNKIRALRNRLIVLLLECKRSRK

In the case of `CCOc1cc(F)c(Cn2nc(-c3nc(Nc4ccncc4)c(OC)c(Nc4ccncc4)n3)c3ccccc32)c(F)c1` [Example 2-4-2, 2-[1-(4-ethoxy-2,6-difluorobenzyl)-1H-indazol-3-yl]-5-methoxy-N,N′-di(pyridin-4-yl)pyrimidine-4,6-diamine], the IC50 [1, 8] is reported as 430 nM, the IC50 [2] is reported as 1500 nM and the IC50 [3] is reported as 1100 nM. The IC50 ([4]; NCI-H460, 96 h) was 4300 nM, the IC50 [5] was 3700 nM and the IC50 [6] was 420 nM. The IC50 [7] was 540 nM.
`Fc1ccccc1Cn1nc(-c2nc(Nc3ccncc3)cc(Nc3ccncc3)n2)c2ccccc21` [Example 2-1-2, 2-[1-(2-fluorobenzyl)-1H-indazol-3-yl]-N,N′-di(pyridin-4-yl)pyrimidine-4,6-diamine] gave an IC50 [1] greater than 20000 nM, an IC50 [2, 9] of 490 nM and an IC50 ([3]; HeLa-MaTu-ADR, cervical cancer, 4 days incubation, crystal violet staining) of 1500 nM. For the same compound, the IC50 ([4]; 96 h, NCI-H460, non-small cell lung cancer, 4 days incubation, crystal violet staining) was 470 nM, the IC50 ([5]; DU145, prostate cancer, 4 days incubation, crystal violet staining) was 360 nM and the IC50 ([6]; Caco2, colon cancer, 4 days incubation, crystal violet staining) was 1100 nM. The IC50 ([7]; B16F10, melanoma, 4 days incubation, crystal violet staining) was 250 nM.
In the case of `COCC(=O)Nc1cc(Nc2ccncc2)nc(-c2nn(Cc3ccccc3F)c3ccccc23)n1` [Example 2-2-2, N-{2-[1-(2-fluorobenzyl)-1H-indazol-3-yl]-6-(pyridin-4-ylamino)pyrimidin-4-yl}-2-methoxyacetamide], the IC50 [1, 8] is reported as 96 nM and the IC50 [2] is reported as no less than 10000 nM.
Compound `Nc1cc(Nc2ccncc2)nc(-c2nn(Cc3ccccc3F)c3ccccc23)n1` [Example 2-1-1, 2-[1-(2-fluorobenzyl)-1H-indazol-3-yl]-N-(pyridin-4-yl)pyrimidine-4,6-diamine] has an IC50 [1, 8] of 19 nM and an IC50 [2] of 3600 nM.
In the case of `CCOc1cc(F)c(Cn2nc(-c3nc(Nc4ccncc4)nc(Nc4ccncc4)n3)c3ccccc32)c(F)c1` [Example 2-4-5, 6-[1-(4-ethoxy-2,6-difluorobenzyl)-1H-indazol-3-yl]-N,N′-di(pyridin-4-yl)-1,3,5-triazine-2,4-diamine], the IC50 [1, 8] is reported as 43 nM, the IC50 [2] is reported as 940 nM and the IC50 [3] is reported as 390 nM. The IC50 ([4]; NCI-H460, 96 h) was 750 nM, the IC50 [5] was 1200 nM and the IC50 [6] was 480 nM. It also gave an IC50 [7] of 780 nM.
With `CCOc1cc(F)c(Cn2nc(-c3nc(Nc4ccncc4)c(OCCO)c(Nc4ccncc4)n3)c3ccccc32)c(F)c1` [Example 2-5-2, 2-({2-[1-(4-ethoxy-2,6-difluorobenzyl)-1H-indazol-3-yl]-4,6-bis-(pyridin-4-ylamino)pyrimidin-5-yl}oxy)ethanol] the IC50 [1, 8] was 170 nM, the IC50 [2] was 1200 nM and the IC50 [3] was 280 nM. It also gave an IC50 ([4]; NCI-H460, 96 h) of 590 nM, an IC50 [5] of 940 nM and an IC50 [6] of 400 nM. It also gave an IC50 [7] of 520 nM.
With `CCOc1cc(F)c(Cn2nc(-c3nc4c(c(Nc5ccncn5)n3)OCC(=O)N4)c3ccccc32)c(F)c1` [Example 2-3-18, 2-[1-(4-ethoxy-2,6-difluorobenzyl)-1H-indazol-3-yl]-4-(pyrimidin-4-ylamino)-6H-pyrimido[5,4-b][1,4]oxazin-7(8H)-one] the IC50 [1, 8] was 19 nM and the IC50 [2] was no less than 10000 nM.
`CCOc1cc(F)c(Cn2nc(-c3nc(N)c(NS(=O)(=O)CC)c(Nc4ccncc4)n3)c3ccccc32)c(F)c1` [Example 2-3-15, N-{4-amino-2-[1-(4-ethoxy-2,6-difluorobenzyl)-1H-indazol-3-yl]-6-(pyridin-4-ylamino)pyrimidin-5-yl}ethanesulfonamide] gave an IC50 [1, 8] of 5.8 nM and an IC50 [2] of no less than 10000 nM.
`CCOc1cc(F)c(Cn2nc(-c3nc4c(c(Nc5ccncc5)n3)OCC(=O)N4)c3ccccc32)c(F)c1` [Example 2-3-17, 2-[1-(4-ethoxy-2,6-difluorobenzyl)-1H-indazol-3-yl]-4-(pyridin-4-ylamino)-6H-pyrimido[5,4-b][1,4]oxazin-7(8H)-one] gave an IC50 [1, 8] of 8 nM and an IC50 [2] of 1200 nM.
Compound `CCOc1cc(F)c(Cn2nc(-c3nc(Nc4ccncc4)c(N4CCOCC4)c(Nc4ccncc4)n3)c3ccccc32)c(F)c1` [Example 2-4-3, 2-[1-(4-ethoxy-2,6-difluorobenzyl)-1H-indazol-3-yl]-5-(morpholin-4-yl)-N,N′-di(pyridin-4-yl)pyrimidine-4,6-diamine] has an IC50 [1] of 640 nM and an IC50 [2, 9] of 3400 nM.
`CCOc1cc(F)c(Cn2nc(-c3nc(N)cc(Nc4ccncc4)n3)c3ccccc32)c(F)c1` [Example 2-3-1, 2-[1-(4-ethoxy-2,6-difluorobenzyl)-1H-indazol-3-yl]-N-(pyridin-4-yl)pyrimidine-4,6-diamine] showed an IC50 [1, 8] of 6.4 nM and an IC50 [2] of 1300 nM.
In the case of `CCNC(=O)Nc1nc(-c2nn(Cc3c(F)cc(OCC)cc3F)c3ccccc23)nc(Nc2ccncn2)c1N1CCOCC1` [Example 2-3-8, 1-{2-[1-(4-ethoxy-2,6-difluorobenzyl)-1H-indazol-3-yl]-5-(morpholin-4-yl)-6-(pyrimidin-4-ylamino)pyrimidin-4-yl}-3-ethylurea], the IC50 [1] is reported as 280 nM and the IC50 [2, 9] is reported as greater than 10000 nM.
For `CCOc1cc(F)c(Cn2nc(-c3nc(Nc4ccncn4)c(NC(=O)COC)c(Nc4ccncn4)n3)c3ccccc32)c(F)c1` [Example 2-4-9, N-{2-[1-(4-ethoxy-2,6-difluorobenzyl)-1H-indazol-3-yl]-4,6-bis(pyrimidin-4-ylamino)pyrimidin-5-yl}-2-methoxyacetamide], the IC50 [1, 8] was 22 nM and the IC50 [2] was no less than 10000 nM.
